Values quoted from earlier work in US20060008520A1, “Delayed release formulations of 6-mercaptopurine” (priority 2004, published 2006).

fraction of an oral dose absorbed: Approximately 50%
SMILES: Sc1ncnc2nc[nH]c12 [6-MP, 6-mercaptopurine]
